Experimental data taken from US6706663B2, “Herbicidal 3-heterocyclic substituted benzisothiazole and benzisoxazole compounds” (Wyeth, priority 2000, dated 2004).

Experiments:
[1] = test system: AMBEL (Ambrosia artemisifolia); test: Postemergence herbicidal evaluation; assay type: in vivo, L.; details: postemergence
In short: (§1)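 Seedlings grown about two weeks in flats, sprayed, then kept under standard greenhouse care. Rated visually 4–5 weeks after treatment on a 0–9 scale (stand, vigour, malformation, size, chlorosis, overall appearance) relative to untreated control; repeat tests averaged.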

[2] = test system: CASOB (Cassia obtusifolia); test: Postemergence herbicidal evaluation; assay type: in vivo, L.; details: postemergence
In short: as §1

[3] = test system: CHEAL (Chenopodium album); test: Postemergence herbicidal evaluation; assay type: in vivo, L.; details: postemergence
In short: as §1

[4] = test system: ECHCG (Echinochloa crus-galli); test: Postemergence herbicidal evaluation; assay type: in vivo, (L.) Beau; details: postemergence
In short: as §1

ORYSAT (Rice, Tebonnet) [5] = test: Postemergence herbicidal evaluation; assay type: in vivo, Oryza sativa, (L.) Tebonnet; details: postemergence
In short: as §1

ZEAMX (Corn, Field) = test: Postemergence herbicidal evaluation; assay type: in vivo, Zea mays, L.; details: postemergence
In short: as §1

[6] = test system: IPOHE (Ipomoea hederacea); test: Preemergence herbicidal evaluation; assay type: in vivo, (L.) Jacq.; details: rated 4-5 weeks after treatment
[7] = test system: GLXMAW (Soybean, Williams); test: Preemergence herbicidal evaluation; assay type: in vivo, Glycine max, (L.) Merr. cv Williams; details: rated 4-5 weeks after treatment
ORYSAT (Rice, Tebonnet) [8] = test: Preemergence herbicidal evaluation; assay type: in vivo, Oryza sativa, (L.) Tebonnet; details: rated 4-5 weeks after treatment
[9] = test system: TRZAWR (Wheat, Winter, cv Riband); test: Preemergence herbicidal evaluation; assay type: in vivo, Triticum aestivum; details: rated 4-5 weeks after treatment
In short: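 Seeds planted in potting soil cups and sprayed preemergence with aqueous acetone compound solution. Greenhouse-grown; rated 4–5 weeks after treatment on a 0-9 visual scale (stand, vigor, malformation, size, chlorosis, appearance) versus control.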

[10] = test system: ECHORC (Echinochloa oryzoides); test: Flooded paddy, preemergence weed control; assay type: in vivo, Echinochloa oryzoides (Ard.) Fritsch.; details: rated 3-4 weeks after treatment, 0-9 rating scale
In short: (§2)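 Visual 0-9 rating versus control, scoring stand, vigor, malformation, size, chlorosis and overall appearance. Silt loam soil, propagules in top 0.5 cm; flood depth 1.5–3 cm held for the whole test; greenhouse.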

CYPIR (Cyperus iria) = test: Flooded paddy, preemergence weed control; assay type: in vivo; details: rated 3-4 weeks after treatment, 0-9 rating scale
In short: as §2

[11] = test system: SAGPY (Sagittaria pygmaea); test: Flooded paddy, preemergence weed control; assay type: in vivo, L.; details: rated 3-4 weeks after treatment, 0-9 rating scale
In short: as §2

Q: For `C[C@@H]1C[C@H](C)OC(c2nsc3ccc(-n4c(=O)cc(C(F)(F)F)n(C)c4=O)cc23)O1` (stereo partly drawn) [Compound 51, 3-[3-[(4R,6S)-4,6-dimethyl-m-dioxan-2-yl]-1,2-benzisothiazol-5-yl]-1-methyl-6-(trifluoromethyl)uracil], which AMBEL herbicidal rating ([1]; rate 0.0320 kg/ha) is on record?
A: The AMBEL herbicidal rating was 9.0.

Q: What about the AMBEL herbicidal rating ([1]; rate 0.0620 kg/ha) of the same compound?
A: The AMBEL herbicidal rating was 9.0.

Q: What about the CASOB herbicidal rating ([2]; rate 0.0320 kg/ha) of the same compound?
A: Its CASOB herbicidal rating is 2.0.

Q: What about the CASOB herbicidal rating ([2]; rate 0.0620 kg/ha) of the same compound?
A: Its CASOB herbicidal rating is 6.0.

Q: What about the CHEAL herbicidal rating ([3]; rate 0.0320 kg/ha) of the same compound?
A: Its CHEAL herbicidal rating is 7.0.

Q: What about the CHEAL herbicidal rating ([3]; rate 0.0620 kg/ha) of the same compound?
A: The CHEAL herbicidal rating was 8.0.

Q: And the ECHCG herbicidal rating ([4]; rate 0.0320 kg/ha)?
A: Its ECHCG herbicidal rating is 3.0.

Q: And the ECHCG herbicidal rating ([4]; rate 0.0620 kg/ha)?
A: The ECHCG herbicidal rating was 3.0.

Q: What about the ORYSAT herbicidal rating (ORYSAT (Rice, Tebonnet) [5]; rate 0.0320 kg/ha) of the same compound?
A: Its ORYSAT herbicidal rating is 3.0.

Q: What about the ORYSAT herbicidal rating (ORYSAT (Rice, Tebonnet) [5]; rate 0.0620 kg/ha) of the same compound?
A: Its ORYSAT herbicidal rating is 4.0.

Q: And the ZEAMX herbicidal rating (ZEAMX (Corn, Field); rate 0.0320 kg/ha)?
A: Its ZEAMX herbicidal rating is 5.0.

Q: And the ZEAMX herbicidal rating (ZEAMX (Corn, Field); rate 0.0620 kg/ha)?
A: The ZEAMX herbicidal rating was 5.5.

Q: And the “Preemergence herbicidal rating IPOHE” value ([6]; Rate 0.0620 kg/ha)?
A: Its value is 6.5.

Q: And the “Preemergence herbicidal rating IPOHE” value ([6]; Rate 0.1250 kg/ha)?
A: The value was 9.0.

Q: And the “Preemergence herbicidal rating IPOHE” value ([6]; Rate 0.2500 kg/ha)?
A: Its value is 9.0.

Q: And the “Preemergence herbicidal rating GLXMAW” value ([7]; Rate 0.0620 kg/ha)?
A: Its value is 9.0.

Q: What about the “Preemergence herbicidal rating GLXMAW” value ([7]; Rate 0.1250 kg/ha) of the same compound?
A: Its value is 9.0.

Q: What about the “Preemergence herbicidal rating GLXMAW” value ([7]; Rate 0.2500 kg/ha) of the same compound?
A: Its value is 9.0.

Q: And the “Preemergence herbicidal rating ORYSAT” value (ORYSAT (Rice, Tebonnet) [8]; Rate 0.0620 kg/ha)?
A: The value was 8.5.

Q: And the “Preemergence herbicidal rating ORYSAT” value (ORYSAT (Rice, Tebonnet) [8]; Rate 0.1250 kg/ha)?
A: The value was 9.0.

Q: What about the “Preemergence herbicidal rating ORYSAT” value (ORYSAT (Rice, Tebonnet) [8]; Rate 0.2500 kg/ha) of the same compound?
A: Its value is 9.0.

Q: And the “Preemergence herbicidal rating TRZAWR” value ([9]; Rate 0.0620 kg/ha)?
A: The value was 9.0.

Q: And the “Preemergence herbicidal rating TRZAWR” value ([9]; Rate 0.1250 kg/ha)?
A: Its value is 9.0.

Q: What about the “Preemergence herbicidal rating TRZAWR” value ([9]; Rate 0.2500 kg/ha) of the same compound?
A: The value was 9.0.

Q: What about the “herbicidal rating, ECHORC” value ([10]; rate 0.0080 kg/ha) of the same compound?
A: Its value is 8.0.

Q: What about the “herbicidal rating, ECHORC” value ([10]; rate 0.0320 kg/ha) of the same compound?
A: Its value is 9.0.

Q: What about the “herbicidal rating, ECHORC” value ([10]; rate 0.1250 kg/ha) of the same compound?
A: The value was 9.0.

Q: What about the “herbicidal rating, CYPIR” value (CYPIR (Cyperus iria); rate 0.0080 kg/ha) of the same compound?
A: The value was 3.0.

Q: What about the “herbicidal rating, CYPIR” value (CYPIR (Cyperus iria); rate 0.0320 kg/ha) of the same compound?
A: Its value is 8.0.

Q: What about the “herbicidal rating, CYPIR” value (CYPIR (Cyperus iria); rate 0.1250 kg/ha) of the same compound?
A: Its value is 9.0.

Q: And the “herbicidal rating, SAGPY” value ([11]; rate 0.0080 kg/ha)?
A: The value was 0.0.

Q: What about the “herbicidal rating, SAGPY” value ([11]; rate 0.0320 kg/ha) of the same compound?
A: Its value is 7.0.

Q: And the “herbicidal rating, SAGPY” value ([11]; rate 0.1250 kg/ha)?
A: Its value is 9.0.
